These results are taken from US20070004727A1, “Use of compounds for the prevention of drug-induced cell toxicity” (Reception ApS c/o Ostysk Innovation A/S, priority 2003, published 2007).

For the experiment, the system named is uptake of gentamicin into the mouse kidneys. Nature of the experiment: Gentamicin uptake in mouse kidneys following i.p. administration of the compound. It counts as in vivo. Conditions: for Effect of the inhibitors on the uptake of gentamicin into the mouse kidneys: 3 mg of inhibitor intraperitoneally in mice, as in Example 1 (FIG. 6), ranked among six inhibitors tested. How it is done:
The effect of a compound, 2-[4-(2-aminoethyl)piperazin-1-yl]ethylamine (Aldrich, D2,340-8, lot 06028BO-332), according to the invention was tested in vivo. Gentamicin uptake in mouse kidneys following intraperitoneal (i.p.) administration of the compound was measured.
For normal application of radioactive gentamicin the following was performed: I.p. injection of 50 micrograms per kg of tritiated gentamicin with or without 3 mg of the inhibitor per mouse.
For competition of clinical doses of gentamicin 50 micrograms/kg of tritiated gentamicin plus 5 mg/kg of cold gentamicin (clinical dose) were injected in admixture with 3 mg total of 2-[4-(2-aminoethyl)piperazin-1-yl]ethylamine per mouse. A control received gentamicin only.
In this experiment 3 mg of the inhibitors 3-methylamino-1-(4-methylpiperazino)-2-propanole, 4-piperazinoaniline, piperazin-2-one-HCl, 2-[4-(2-aminoethyl)piperazin-1-yl]ethylamine, piperazine anhydrous, and 0.5 mg of 1-(3-chlorophenyl)piperazine diHCl (m-CPP), respectively, were administered intraperitoneally in mice (see FIG. 6) as described in Example 1. The effect of the inhibitors on the uptake of gentamicin into the mouse kidneys was determined by means of the assay described in Example 1.

For the compound `NCCN1CCN(CCN)CC1` [2-[4-(2-aminoethyl)piperazin-1-yl]ethylamine], the “Effect of the inhibitors on the uptake of gentamicin into the mouse kidneys” value (from here on “Effect of the inhibitors”) is given as “strongest gentamicin inhibitors”. Besides, where the note is “i.p., 50 micrograms/kg tritiated gentamicin plus 5 mg/kg cold gentamicin (clinical dose) in admixture with 3 mg total of compound per mouse, control received gentamicin only”, the “Inhibition (of gentamicin uptake in mouse kidneys) compared to the control” value worked out at 40%. In the case of `Cl.O=C1CNCCN1` [piperazin-2-one-HCl], the “Effect of the inhibitors” value is “strongest gentamicin inhibitors”.

Consider `C1CNCCN1` [piperazine anhydrous], for which the “Effect of the inhibitors” value is listed as “strongest gentamicin inhibitors”.
